Measurements taken from PMC9981747, “A covalent BTK ternary complex compatible with targeted protein degradation” (Nature Communications, 2023).
“And” between values parts separate entries of the source, which are not always exact repeats. Equal values may be shown once.

Legend:
BTK^FL-C481S [1] = molecular target: T1, BTK^FL-C481S (Homo sapiens, UniProt Q06187+Q13490, C481S); experiment: Expi293 dose-dependent BTK degradation (western blot), BTK^FL-C481S co-transfected with cIAP1^FL; format: cell-based; details: for C481S BTK blot signal normalized to DMSO: replicates; for DC50: Expi293, cIAP1^FL co-transfected, ~18 h, 3 experiments
T1 construct: we used a full-length BTK (aa1-659) with a C terminal Tobacco Etch Virus protease (TEV) site; expressed in transfected cells; host or cells: Expi293 (HEK293)
Procedure: (§1) Gibco Expi293 cell line Transfection Kit (Cat.# A14524) was cultured according to the manufacturers conditions. Cells were grown at 37 °C with 5% CO2 to 4 × 10^6 cells/mL using an orbital shaker set to 95 RPM. Next cells were split to 2 × 10^6 cells/mL and transfected with plasmid DNA at a 1 µg/mL final concentration in Optimem (Gibco 31985070) using the Expifectamine 293 transfection reagent according to manufacturer’s conditions. After approximately 18 h, enhancers 1 and 2 (provided with kit). Viability was typically about 85%. When cIAP1^FL was transfected, it was detected via α-cIAP1 antibody there was typically some autoubiquitination detected, and thus often appeared as a laddered or smeared band via western blotting. When BTK^FL variants were transfected, they were detected using anti-BTK antibody (D3H5).
For dose-dependent degradation assays, cells were plated in a 24-well format and placed on a separate orbital shaker set to 115 RPM. Each well was treated with prescribed compound concentrations in the same manner as with THP-1 cells, with the exception of using Expifectamine 293 growth medium in place of RPMI 1640 complete media. After approximately 18 h post-treatment cells were harvested, centrifuged at 100 x g at 4 °C, washed twice with ice-cold PBS, and resuspended in RIPA buffer supplemented with a Roche protease inhibitor cocktail (Cat. #11873580001), and benzonase nuclease (Millipore-Sigma Cat# 70664). Each sample was incubated on ice for 30 min with periodic vortexing and centrifuged at 15 Kxg for 20 min. Clarified lysate was harvested and quantified using a Pierce BCA Assay Kit (Cat. #23225), and 20 µg of the sample was loaded into a 4–15% Criterion TGX gel (Bio-Rad, 5678085) and transferred to a nitrocellulose membrane (Life Technologies Cat. #IB23001) using an iBlot 2 (Life Technologies Cat. #IB21001). Proteins were detected using an iBind system (Life Technologies SLF2020). For BTK^T474I and BTK^T474I/C481S we inferred ligand entry into cells via the autoubiquitination and dose-dependent degradation of cIAP1^FL,[58].
(§2) Dose-dependent Degradation was analyzed using ImageJ (NIH, version 1.50i). Densiometric analysis was performed, normalized to DMSO signal, and analyzed using GraphPad Prism (Version 9.0.0 (121)). Non-linear fit one-phase decay analysis was used to obtain DC50 values. When we observed a hook effect, some points were excluded as part of the fit. In Supplementary Fig. 7B the complete curve was fit using GraphPad Prism non-linear regression bell-shaped curve where X is the concentration. However, using this method we were unable to obtain stable values for our DC50. SEM error was plotted for each point. When determining statistically significant differences, we used a two-sided student’s unpaired T-Test.

BTK^FL-C481S [2] = molecular target: T1, BTK^FL-C481S; experiment: Expi293 time-dependent degradation of BTK^FL-C481S; format: cell-based; details: 5 µM; for BTK^FL-C481S blot signal normalized to time 0: replicates
Procedure: as §1
For covalent modification detection assays, the compound was added to Expi293 cells after enhancer treatment. At each timepoint 10 mL of cells were harvested, rapidly cooled to 4 °C in an ice bath, and centrifuged at 100 x g at 4 °C for 5 min. The pellet was washed twice with ice-cold PBS, snap-frozen in liquid nitrogen, and stored at −80 °C. Each pellet was resuspended in 0.1 mL ice-cold RIPA Buffer supplemented with 40 µM BCNC (to outcompete any remaining BCCov), protease inhibitor, and benzonase, and sonicated with 10 brief blasts at power 20. Lysate was centrifuged at 15 K x g for 20 min at 4 °C and prepared for western blotting as detailed above. When samples were evaluated for covalent adduct formation, a purification step was required. Briefly, the ~1 mL of clarified lysate was added to 9 mL of FLAG binding buffer (25 mM HEPES 7.5, 300 mM NaCl, 10% glycerol). These samples were incubated with 250 µL of anti-FLAG M2 affinity resin (Millipore-Sigma Cat. # A2220) for 3 h at 4 °C with gentle nutation. Samples were washed via gravity column filtration and eluted with 0.2 mg/ml FLAG Peptide (DYKDDDDK, CPC Scientific Peptide Company). Each sample was concentrated to 0.1 mg/mL using an Amicon Ultra-15 Centrifugal filter with a 50 kDa MWCO (Millipore-Sigma Cat. # UFC905024). Details on mass spectrometry analysis are below.

BTK = molecular target: T2, BTK (Homo sapiens, UniProt Q06187+Q13490); experiment: THP-1 dose-dependent degradation of endogenous BTK; format: cell-based; details: replicates
T2 construct: a THP-1 cell line which natively expresses both BTK and cIAP1; host or cells: THP-1
Procedure: Human monocytic leukemia THP-1 Cells (ATCC TIB202) were grown in RPMI 1640 complete media (Gibco Cat# 11875-093), 10% Heat Inactivated FBS (Gibco Cat# 10438026), 2 mM L-Glutamine (Gibco Cat# 25030-081), 10 mM HEPES (Lonza Cat# 17-737E). Cells were cultured to approximately 0.8 × 10^6 cells/mL, centrifuged at 100 x g at 4 °C for 5 min, and resuspended in growth medium at 1.25 × 10^6 cells/mL, and 750 µL were plated in a 24-well format. Compounds were serially diluted in DMSO and individually added to pre-warmed complete media at a 4x concentration. Subsequently, 250 µL was added to their respective well, making it a 1x concentration. Endpoint viability was ≥95%. Each experiment was performed with n = 3 independent experiments. Three datapoints are missing due to blot.
as §2

cIAP1^BUCR1 = cIAP1^BUCR1 (Homo sapiens, UniProt Q13490); experiment: biochemical
Procedure: Experiments were performed on a Biacore^TM 8k instrument (GE Healthcare). Biotinylated cIAP1^Bir3 was captured onto a streptavidin sensor chip to levels ranging from 3000–4000 RU. Compound binding experiments were performed in 10 mM HEPES, pH 7.5, 150 mM NaCl, 0.02% BSA, 0.01% P20, and 2% DMSO at 25 °C. Experiments were carried out with n = 4 at 6 concentrations, with the highest concentration of 37 nM and subsequent 3-fold dilutions. BCCov was injected at a flow rate of 30 µL/min, total contact time of 120 s, and dissociation times of 5000 s, using the Single Cycle Kinetics experiment. Binding responses were processed using the Biacore 8k software to zero, x-align, double reference, and correct for excluded volume effects of DMSO in the data.

BTK^T474I = molecular target: T3, BTK^T474I (Homo sapiens, UniProt Q06187+Q13490, T474I); experiment: Expi293 dose-dependent degradation of BTK gatekeeper mutant; format: cell-based; details: Expi293 with cIAP1^FL
T3 construct: we used a full-length BTK (aa1-659) with a C terminal Tobacco Etch Virus protease (TEV) site; expressed in transfected cells; host or cells: Expi293 (HEK293)
Procedure: as §1
For dose-dependent degradation assays, cells were plated in a 24-well format and placed on a separate orbital shaker set to 115 RPM. […] Clarified lysate was harvested and quantified using a Pierce BCA Assay Kit (Cat. #23225), and 20 µg of the sample was loaded into a 4–15% Criterion TGX gel (Bio-Rad, 5678085) and transferred to a nitrocellulose membrane (Life Technologies Cat. #IB23001) using an iBlot 2 (Life Technologies Cat. #IB21001). Proteins were detected using an iBind system (Life Technologies SLF2020). […]

T1 sequence (Q06187 whole entry C481S, the tested form may be a part): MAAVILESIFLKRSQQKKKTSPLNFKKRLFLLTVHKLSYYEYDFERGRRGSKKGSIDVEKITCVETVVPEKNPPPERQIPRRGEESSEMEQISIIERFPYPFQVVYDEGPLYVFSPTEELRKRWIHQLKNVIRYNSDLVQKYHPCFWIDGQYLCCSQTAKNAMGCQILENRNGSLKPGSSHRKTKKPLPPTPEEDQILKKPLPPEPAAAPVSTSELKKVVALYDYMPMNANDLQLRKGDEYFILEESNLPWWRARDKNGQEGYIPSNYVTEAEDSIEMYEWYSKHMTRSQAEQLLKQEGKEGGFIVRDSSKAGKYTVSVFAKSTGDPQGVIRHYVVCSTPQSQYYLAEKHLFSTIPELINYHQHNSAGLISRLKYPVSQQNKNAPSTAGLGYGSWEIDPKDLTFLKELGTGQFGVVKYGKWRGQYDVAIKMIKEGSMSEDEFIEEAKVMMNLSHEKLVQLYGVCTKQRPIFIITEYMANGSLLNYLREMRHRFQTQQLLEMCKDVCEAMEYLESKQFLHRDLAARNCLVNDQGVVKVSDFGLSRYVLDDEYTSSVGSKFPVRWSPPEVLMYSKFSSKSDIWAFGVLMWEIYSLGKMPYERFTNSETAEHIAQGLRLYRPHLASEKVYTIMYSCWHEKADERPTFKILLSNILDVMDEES
T1 sequence (Q13490 whole entry, the tested form may be a part): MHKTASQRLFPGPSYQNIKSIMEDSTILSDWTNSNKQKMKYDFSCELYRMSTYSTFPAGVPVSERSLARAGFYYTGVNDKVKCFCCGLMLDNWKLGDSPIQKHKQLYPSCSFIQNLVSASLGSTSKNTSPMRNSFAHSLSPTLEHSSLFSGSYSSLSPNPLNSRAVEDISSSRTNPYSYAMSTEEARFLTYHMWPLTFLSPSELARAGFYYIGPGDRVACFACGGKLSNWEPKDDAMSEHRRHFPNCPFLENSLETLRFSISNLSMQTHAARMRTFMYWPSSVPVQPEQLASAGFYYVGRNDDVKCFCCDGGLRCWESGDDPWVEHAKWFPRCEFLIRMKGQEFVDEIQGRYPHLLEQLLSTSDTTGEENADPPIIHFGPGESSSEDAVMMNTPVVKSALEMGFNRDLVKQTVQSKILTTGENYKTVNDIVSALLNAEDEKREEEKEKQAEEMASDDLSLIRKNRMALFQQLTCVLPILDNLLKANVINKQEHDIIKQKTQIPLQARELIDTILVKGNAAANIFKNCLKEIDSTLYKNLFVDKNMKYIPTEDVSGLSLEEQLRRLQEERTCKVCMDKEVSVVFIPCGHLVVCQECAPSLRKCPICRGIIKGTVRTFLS
T2 sequence (Q06187 whole entry): as the sequence (Q06187 whole entry C481S, the tested form may be a part) above, with S481C counted along it
T2 sequence (Q13490 whole entry): as the sequence (Q13490 whole entry, the tested form may be a part) above
Chain of cIAP1^BUCR1 (Q13490 260-618): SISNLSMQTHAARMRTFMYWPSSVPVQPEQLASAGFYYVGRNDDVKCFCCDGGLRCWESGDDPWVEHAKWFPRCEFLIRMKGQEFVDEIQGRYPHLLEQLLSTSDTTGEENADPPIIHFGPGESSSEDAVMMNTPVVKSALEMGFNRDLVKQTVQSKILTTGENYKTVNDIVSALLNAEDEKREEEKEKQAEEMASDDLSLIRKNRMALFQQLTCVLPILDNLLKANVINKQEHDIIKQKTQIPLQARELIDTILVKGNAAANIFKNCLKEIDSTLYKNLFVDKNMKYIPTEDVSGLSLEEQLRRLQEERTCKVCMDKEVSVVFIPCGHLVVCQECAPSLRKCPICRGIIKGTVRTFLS
T3 sequence (Q06187 whole entry T474I, the tested form may be a part): as the sequence (Q06187 whole entry C481S, the tested form may be a part) above, with T474I, S481C counted along it
T3 sequence (Q13490 whole entry, the tested form may be a part): as the sequence (Q13490 whole entry, the tested form may be a part) above

Row | SMILES | C481S BTK blot signal normalized to DMSO (BTK^FL-C481S [1]; 0.004883 uM) | C481S BTK blot signal normalized to DMSO (BTK^FL-C481S [1]; 0.009766 uM) | C481S BTK blot signal normalized to DMSO (BTK^FL-C481S [1]; 0.019531 uM) | C481S BTK blot signal normalized to DMSO (BTK^FL-C481S [1]; 0.039063 uM) | C481S BTK blot signal normalized to DMSO (BTK^FL-C481S [1]; 0.078125 uM) | C481S BTK blot signal normalized to DMSO (BTK^FL-C481S [1]; 0.15625 uM) | C481S BTK blot signal normalized to DMSO (BTK^FL-C481S [1]; 0.3125 uM) | C481S BTK blot signal normalized to DMSO (BTK^FL-C481S [1]; 0.625 uM) | C481S BTK blot signal normalized to DMSO (BTK^FL-C481S [1]; 1.25 uM) | C481S BTK blot signal normalized to DMSO (BTK^FL-C481S [1]; 2.5 uM) | C481S BTK blot signal normalized to DMSO (BTK^FL-C481S [1]; 5 uM) | DC50 (BTK^FL-C481S [1]) | BTK^FL-C481S blot signal normalized to time 0 (BTK^FL-C481S [2]; 0.5 h) | BTK^FL-C481S blot signal normalized to time 0 (BTK^FL-C481S [2]; 1 h) | BTK^FL-C481S blot signal normalized to time 0 (BTK^FL-C481S [2]; 2 h) | BTK^FL-C481S blot signal normalized to time 0 (BTK^FL-C481S [2]; 3.5 h) | BTK^FL-C481S blot signal normalized to time 0 (BTK^FL-C481S [2]; 5.5 h) | BTK^FL-C481S blot signal normalized to time 0 (BTK^FL-C481S [2]; 7 h) | BTK^FL-C481S blot signal normalized to time 0 (BTK^FL-C481S [2]; 17 h) | endogenous BTK blot signal normalized to DMSO (BTK; THP-1, 0.63 uM) | other results
1 | CNC(C)C(=O)NC(C(=O)N1CC(NC(=O)COCCN2CCN(CCCC(=O)N3CCCC(n4nc(-c5ccc(Oc6ccccc6)cc5)c5c(N)ncnc54)C3)CC2)CC1C(=O)NC1CCCc2ccccc21)C1CCCCC1 (stereo not drawn) [BCNC] | 0.87 and 1.00 (2×) | 0.89 and 0.76 and 0.79 | 0.87 and 0.66 and 0.82 | 0.76 and 0.72 and 0.87 | 0.63 and 0.53 and 0.56 | 0.51 and 0.41 and 0.42 | 0.35 and 0.41 and 0.28 | 0.26 and 0.34 and 0.16 | 0.27 and 0.20 and 0.13 | 0.21 and 0.11 and 0.057 | 0.21 and 0.09 and 0.0641 | 0.145 ± 0.058 µM | 0.79 and 0.85 and 0.76 | 0.74 and 0.81 and 0.78 | 0.68 and 0.72 and 0.69 | 0.53 and 0.64 and 0.52 | 0.35 and 0.44 and 0.38 | 0.35 and 0.32 and 0.33 | 0.00 and 0.04 (2×) | 0.00 | endogenous BTK blot signal normalized to DMSO (BTK; THP-1, 0.00488 uM, listed as noncov): 0.97 and 1.25 and 1.03; endogenous BTK blot signal normalized to DMSO (BTK; THP-1, 0.01 uM, listed as noncov): 1.01 and 1.22 and 0.91; endogenous BTK blot signal normalized to DMSO (BTK; THP-1, 0.02 uM, listed as noncov): 1.09 and 1.18 and 0.86; endogenous BTK blot signal normalized to DMSO (BTK; THP-1, 0.04 uM, listed as noncov): 1.06 and 1.18 and 0.70; endogenous BTK blot signal normalized to DMSO (BTK; THP-1, 0.08 uM, listed as noncov): 0.36 and 0.68 and 0.42; endogenous BTK blot signal normalized to DMSO (BTK; THP-1, 0.16 uM, listed as noncov): 0.23 and 0.28 (2×); endogenous BTK blot signal normalized to DMSO (BTK; THP-1, 0.31 uM, listed as noncov): 0.17 and 0.09 and 0.13; endogenous BTK blot signal normalized to DMSO (BTK; THP-1, 1.25 uM): 0.00; endogenous BTK blot signal normalized to DMSO (BTK; THP-1, 2.50 uM): 0.00; endogenous BTK blot signal normalized to DMSO (BTK; THP-1, 5.00 uM): 0.00
2 | CNC(C)C(=O)NC(C(=O)N1CC(NC(=O)COCCN2CCN(CC=CC(=O)N3CCCC(n4nc(-c5ccc(Oc6ccccc6)cc5)c5c(N)ncnc54)C3)CC2)CC1C(=O)NC1CCCc2ccccc21)C1CCCCC1 (stereo not drawn) [BCCov] | 0.87 and 0.90 and 0.91 | 0.89 and 0.76 and 0.79 | 0.87 and 0.66 and 0.82 | 0.76 and 0.72 and 0.87 | 0.63 and 0.53 and 0.56 | 0.51 and 0.41 and 0.42 | 0.35 and 0.41 and 0.28 | 0.26 and 0.34 and 0.16 | 0.27 and 0.20 and 0.13 | 0.21 and 0.11 and 0.057 | 0.21 and 0.09 and 0.0641 | 0.122 ± 0.044 µM | 0.75 and 0.78 and 0.82 | 0.77 and 0.74 and 0.81 | 0.71 and 0.76 and 0.72 | 0.60 and 0.65 and 0.66 | 0.58 and 0.55 and 0.61 | 0.41 and 0.48 and 0.42 | 0.07 (2×) and 0.02 | 0.18 and 0.24 and 0.08 | Kd (cIAP1^BUCR1): ≤ 0.01 µM; rate of BTK^FL-C481S degradation compared with BTK^FL (BTK^FL-C481S [2]): slower rate; endogenous BTK blot signal normalized to DMSO (BTK; THP-1, 0.00488 uM): 1.05 and 0.90 and 1.04; endogenous BTK blot signal normalized to DMSO (BTK; THP-1, 0.01 uM): 1.07 and 1.23 and 0.79; endogenous BTK blot signal normalized to DMSO (BTK; THP-1, 0.02 uM): 0.87 and 1.16 and 0.59; endogenous BTK blot signal normalized to DMSO (BTK; THP-1, 0.04 uM): 0.60 and 1.52 and 0.48; endogenous BTK blot signal normalized to DMSO (BTK; THP-1, 0.08 uM): 0.50 and 0.87 and 0.33; endogenous BTK blot signal normalized to DMSO (BTK; THP-1, 0.16 uM): 0.45 and 0.72 and 0.21; endogenous BTK blot signal normalized to DMSO (BTK; THP-1, 0.31 uM): 0.22 and 0.32 and 0.13; endogenous BTK blot signal normalized to DMSO (BTK; THP-1, 1.25 uM): 0.13 and 0.23 and 0.0336; endogenous BTK blot signal normalized to DMSO (BTK; THP-1, 2.50 uM): 0.11 and 0.00 and 0.00241; endogenous BTK blot signal normalized to DMSO (BTK; THP-1, 5.00 uM): 0.056 and 0.00 (2×); degradation of BTK^T474I (BTK^T474I): loss of activity
